# Reference: PMC7098970, “Neurosteroids as Selective Inhibitors of Glycine Receptor Activity: Structure-Activity Relationship Study on Endogenous Androstanes and Androstenes” (Frontiers in Molecular Neuroscience, 2020)
# “Also recorded” adds a separate entry of the source. Read-outs that look alike come from different tables or passages of the source.
# Assays:
# GABAA receptors = target: T1, GABAA receptors (Rattus norvegicus, UniProt P18508+P62813+P63138); assay type: cell-based
# T1 construct: Single pyramidal neurons from the hippocampal CA3 area or Purkinje cells from sagittal slices of the cerebellum were isolated; endogenous in cells; host or cells: acutely isolated Purkinje cells from cerebellar slices of Wistar rats, 11-14 days old
# T1 sequence (P62813 28-455): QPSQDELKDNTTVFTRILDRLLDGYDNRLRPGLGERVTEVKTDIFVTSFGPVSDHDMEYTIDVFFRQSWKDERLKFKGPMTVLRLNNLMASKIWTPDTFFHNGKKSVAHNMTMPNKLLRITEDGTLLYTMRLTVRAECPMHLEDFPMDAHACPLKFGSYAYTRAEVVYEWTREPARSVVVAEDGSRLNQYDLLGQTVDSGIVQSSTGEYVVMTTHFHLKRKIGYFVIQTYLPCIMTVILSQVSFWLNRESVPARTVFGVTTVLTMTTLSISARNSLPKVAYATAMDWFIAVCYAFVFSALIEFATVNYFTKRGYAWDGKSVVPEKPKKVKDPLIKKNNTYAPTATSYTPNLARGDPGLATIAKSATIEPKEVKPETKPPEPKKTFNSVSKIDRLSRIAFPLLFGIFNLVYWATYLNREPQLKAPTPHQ
# T1 sequence (P63138 25-474 limits assumed): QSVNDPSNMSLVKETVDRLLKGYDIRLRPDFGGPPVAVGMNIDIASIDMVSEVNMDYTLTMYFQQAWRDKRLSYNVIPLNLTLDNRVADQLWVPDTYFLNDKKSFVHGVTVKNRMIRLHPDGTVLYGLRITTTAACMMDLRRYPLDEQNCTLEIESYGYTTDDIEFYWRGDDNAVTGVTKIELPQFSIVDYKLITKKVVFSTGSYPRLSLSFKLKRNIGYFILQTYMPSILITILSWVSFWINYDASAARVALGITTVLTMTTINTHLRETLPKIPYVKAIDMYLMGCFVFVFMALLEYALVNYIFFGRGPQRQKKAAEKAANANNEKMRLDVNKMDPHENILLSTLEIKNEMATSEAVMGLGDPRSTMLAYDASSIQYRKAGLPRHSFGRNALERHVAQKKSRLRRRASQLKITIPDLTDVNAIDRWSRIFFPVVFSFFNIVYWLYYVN
# T1 sequence (P18508 39-466): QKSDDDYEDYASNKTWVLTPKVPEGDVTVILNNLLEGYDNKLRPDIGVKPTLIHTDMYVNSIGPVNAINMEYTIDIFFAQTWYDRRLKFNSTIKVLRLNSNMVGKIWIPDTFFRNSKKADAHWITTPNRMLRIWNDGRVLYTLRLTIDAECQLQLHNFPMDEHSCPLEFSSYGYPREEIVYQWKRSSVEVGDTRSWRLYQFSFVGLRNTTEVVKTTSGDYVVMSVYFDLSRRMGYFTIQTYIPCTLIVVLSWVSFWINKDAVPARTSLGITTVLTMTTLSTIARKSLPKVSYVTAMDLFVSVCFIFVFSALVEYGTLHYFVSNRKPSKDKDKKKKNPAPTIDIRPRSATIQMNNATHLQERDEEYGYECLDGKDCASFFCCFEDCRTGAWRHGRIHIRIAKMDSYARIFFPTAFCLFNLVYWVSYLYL
# Method: (§1) All experiments were conducted per the requirements of the Ministry of Public Health of the Russian Federation and were consistent with the EU directive for Use of Experimental Animals of the European Community. […] The cells were isolated from transverse hippocampal slices as described in detail elsewhere ([Vorobjev, 1991]). Briefly, the slices (200–500 μm) of Wistar rats (11–14 days of age) hippocampus or cerebellum were incubated at room temperature for at least 2 h in a solution containing the following components (in mM): 124 NaCl, 3 KCl, 2 CaCl2, 2 MgSO4, 25 NaHCO3, 1.3 NaH2PO4, 10 D-glucose, pH 7.4. The saline was continuously stirred and bubbled with carbogen (95% 0_2 + 5% CO2). Single pyramidal neurons from the hippocampal CA3 area or Purkinje cells from sagittal slices of the cerebellum were isolated by a vibrating fused glass pipette with a spherical tip.
# (§2) Isolated neurons were patch clamped and then lifted into the outflow of the control bath solution. […] The substances were applied through glass capillary, 0.1 mm in diameter, which could be rapidly displaced laterally ([Vorobjev et al., 1996]). A fast perfusion technique allows a complete exchange of external solution surrounding a neuron within 20 ms. […] Transmembrane currents were recorded using a conventional patch-clamp technique in the whole-cell configuration. […] The solution in the recording pipette contained the following (in mM): 40 CsF, 100 CsCl, 0.5 CaCl2, 5 EGTA, 3 MgCl2, 4 NaATP, 5 HEPES, pH 7.3. The composition of the extracellular solution was as follows (in mM): 140 NaCl, 3 KCl, 3 CaCl2, 3 MgCl2, 10 D-glucose, 10 HEPES hemisodium, and pH 7.4. Recording of the currents was performed using EPC7 patch-clamp amplifier (HEKA Electronik, Germany). The holding potential was maintained at −70 mV. Transmembrane currents were filtered at 3 kHz, stored and analyzed with IBM-PC computer, using homemade software.
# (§3) Statistical analysis was performed with the help of Prism Graphpad software. All comparisons were made with ANOVA-test using Dunnett’s multiple comparison test and Student’s unpaired t-test at a significance level of p = 0.05. N = 5–8 cells from 3 to 4 animals for every concentration. […] The meanings of asterisks (probability levels) in figures is the following: ^∗P < 0.05, ^∗∗P < 0.01. The IC50 values for steroids inhibition of the IGly and IGABA were determined using the equation: Y = 1 – [max/(1 + (IC50/C)^n)], where max is the maximum inhibition attainable, C is the concentration of steroid, IC50 is the half-maximal inhibitory concentration and n is the slope factor (Hill coefficient).
# (§4) First, the ability of steroids to affect the holding current at voltage-clamp regime was tested. […] The experiments with IGly were conducted on rat hippocampal neurons, and experiments with IGABA were conducted on rat cerebellar Purkinje cells.
# glycine receptor (GlyR) = assay: Glycine-induced chloride current (IGly), whole-cell patch-clamp in isolated pyramidal neurons of the rat hippocampus; assay type: cell-based; settings: for τdes/τdes control of IGly: 0.1 μM of steroid; for τdes/τdes control of IGly / Ipeak/Ipeak control of IGly: mean ± SEM, normalized; for Ipeak/Ipeak control of IGly: 10 μM of steroid; for Ipeak max (maximum inhibition attainable) of IGly / Ipeak Hill coefficient of IGly: peak amplitude
# Method: as §1, §2, §3, §4
# [1] = Hill fit, time constant of desensitization, 100 μM glycine
# [2] = read-out: Ipeak IC50 of IGly, inhibition of peak amplitude, 100 μM glycine
# [3] = read-out: τdes IC50 of IGly, acceleration of desensitization (decrease in τdes), 100 μM glycine
# [4] = time constant of desensitization, 100 μM glycine
# [5] = footnote b: did not modulate IGABA up to the concentration of 10 μM, 5 μM GABA
SMILES,"τdes/τdes control of IGABA (GABAA receptors; 10 μM of steroid, 5 μM GABA)","Ipeak/Ipeak control of IGABA (GABAA receptors; 50 μM of steroid, 5 μM GABA)",τdes/τdes control of IGly (glycine receptor (GlyR); 100 μM glycine),"τdes IGly (effect on time constant of desensitization) (glycine receptor (GlyR); 10 μM compound, 100 μM glycine)",Ipeak/Ipeak control of IGly (glycine receptor (GlyR); 100 μM glycine),"Ipeak max (maximum inhibition attainable) of IGly (glycine receptor (GlyR); Hill fit, 100 μM glycine)",τdes max (maximum inhibition attainable) of IGly (glycine receptor (GlyR); [1]),Ipeak Hill coefficient of IGly (glycine receptor (GlyR); 100 μM glycine),IC50 (glycine receptor (GlyR); [2]),IC50 (glycine receptor (GlyR); [3]),τdes Hill coefficient of IGly (glycine receptor (GlyR); [4]),Ipeak/Ipeak control of IGABA (GABAA receptors),τdes IGABA (effect in words) (GABAA receptors),τdes/τdes control of IGABA (GABAA receptors),also measured
"CN1CCc2cc3c(cc2[C@H]1[C@@H]1OC(=O)c2c1ccc1c2OCO1)OCO3 [bicuculline, reference compound]",,,,,,,,,,,,,,,Block of IGABA (GABAA receptors): reversibly blocked
"C[C@]12CC[C@H]3[C@@H](CCC4=CC(=O)CC[C@@]43C)[C@@H]1CC[C@H]2O [Compound 5, 17α-Hydroxyandrost-4-en-3-one]",0.97 ± 0.03,1.12 ± 0.08,0.66 ± 0.04,−72%,0.80 ± 0.04,0.46 ± 0.09,0.81 ± 0.11,1.2 ± 0.34,17 ± 2.9 µM,0.22 ± 0.08 µM,0.51 ± 0.15,,,,"τdes IGABA (effect in words) (GABAA receptors; footnote c: did not modulate IGABA up to the concentration of 50 μM, 5 μM GABA): ^cNo effect; Modulation of IGABA (peak amplitude or rate of decay/desensitization) (GABAA receptors; up to 50 μM compound, 5 μM GABA): did not modulate; also recorded: remained inactive; also recorded: did not change"
"C[C@]12CC[C@H]3[C@@H](CC=C4C[C@@H](O)CC[C@@]43C)[C@@H]1CC[C@@H]2O [Compound 7, 3β,17β-Androst-5-ene-3,17-diol]",,,0.72 ± 0.03,,0.75 ± 0.02,0.52 ± 0.09,,0.71 ± 0.16,16.2 ± 2.3 µM,,,0.77 ± 0.06,^bNo effect,0.98 ± 0.02,Acceleration of decay (desensitization) of IGABA (GABAA receptors): 23–45%; Decrease in the peak amplitude of IGABA (GABAA receptors): 14–25%; τdes Hill coefficient of IGly (glycine receptor (GlyR)): 0.56 ± 0.13; τdes IGly (effect on time constant of desensitization) (glycine receptor (GlyR)): −70%; τdes max (maximum inhibition attainable) of IGly (glycine receptor (GlyR)): 0.81 ± 0.09; IC50 (glycine receptor (GlyR); read-out: τdes IC50 of IGly): 0.29 ± 0.12 µM
"C[C@]12CC[C@H]3[C@@H](CCC4=CC(=O)CC[C@@]43C)[C@@H]1CC[C@@H]2O [Compound 1, 17β-Hydroxyandrost-4-en-3-one]",0.99 ± 0.02,0.86 ± 0.03,0.68 ± 0.05,−67%,0.75 ± 0.03,0.58 ± 0.10,0.72 ± 0.08,1.1 ± 0.32,19.3 ± 2.3 µM,0.13 ± 0.06 µM,0.58 ± 0.20,,,,"Acceleration of decay (desensitization) of IGABA (GABAA receptors; 50 μM compound, 5 μM GABA): 23–45%; Decrease in the peak amplitude of IGABA (GABAA receptors; 50 μM compound, 5 μM GABA): 14–25%; τdes IGABA (effect in words) (GABAA receptors; [5]): ^bNo effect; Effect on IGly in words (glycine receptor (GlyR); 0.1 and 1 μM compound): accelerated desensitization without effect on the peak amplitude; Effect on IGly in words (glycine receptor (GlyR); 10 and 100 μM compound): acceleration of desensitization and a decrease in peak amplitude"
"C[C@]12CCC(=O)C[C@@H]1CC[C@@H]1[C@@H]2CC[C@]2(C)[C@@H](O)CC[C@@H]12 [Compound 3, 17β-Hydroxy-5α-androstan-3-one]",,,0.72 ± 0.06,,0.78 ± 0.03,0.61 ± 0.08,,0.86 ± 0.15,20.1 ± 2.8 µM,,,0.95 ± 0.03,^cNo effect,0.98 ± 0.02,Modulation of IGABA (peak amplitude or rate of decay/desensitization) (GABAA receptors): did not modulate; also recorded: remained inactive; also recorded: did not change; τdes Hill coefficient of IGly (glycine receptor (GlyR)): 0.58 ± 0.13; τdes IGly (effect on time constant of desensitization) (glycine receptor (GlyR)): −82%; τdes max (maximum inhibition attainable) of IGly (glycine receptor (GlyR)): 0.97 ± 0.11; IC50 (glycine receptor (GlyR); read-out: τdes IC50 of IGly): 0.42 ± 0.14 µM
"C[C@]12CCC(=O)C=C1CC[C@@H]1[C@@H]2CC[C@]2(C)C(=O)CC[C@@H]12 [Compound 2, Androst-4-en-3,17-dione]",0.98 ± 0.02,0.77 ± 0.02,0.73 ± 0.06,−84%,0.82 ± 0.02,0.55 ± 0.09,0.97 ± 0.10,1.1 ± 0.36,18.1 ± 2.9 µM,0.49 ± 0.16 µM,0.60 ± 0.11,,,,"Acceleration of decay (desensitization) of IGABA (GABAA receptors; 50 μM compound, 5 μM GABA): 23–45%; Decrease in the peak amplitude of IGABA (GABAA receptors; 50 μM compound, 5 μM GABA): 14–25%; τdes IGABA (effect in words) (GABAA receptors; [5]): ^bNo effect"
"C[C@]12CCC(=O)C[C@H]1CC[C@@H]1[C@@H]2CC[C@]2(C)C(=O)CC[C@@H]12 [Compound 9, 5β-Androstane-3,17-dione]",,,0.72 ± 0.07,−68%,0.77 ± 0.03,0.68 ± 0.09,0.79 ± 0.11,1.0 ± 0.19,22 ± 2.8 µM,0.4 ± 0.12 µM,0.56 ± 0.14,0.99 ± 0.01,^cNo effect,0.97 ± 0.03,Modulation of IGABA (peak amplitude or rate of decay/desensitization) (GABAA receptors): did not modulate; also recorded: remained inactive; also recorded: did not change
"C[C@]12CC[C@H](O)CC1=CC[C@@H]1[C@@H]2CC[C@]2(C)C(=O)CC[C@@H]12 [Compound 8, 3β-Hydroxy-androst-5-en-17-one]",0.88 ± 0.05,0.75 ± 0.04,0.67 ± 0.05,−79%,0.70 ± 0.01,0.73 ± 0.08,0.88 ± 0.09,0.92 ± 0.14,21.3 ± 2.2 µM,0.24 ± 0.09 µM,0.57 ± 0.14,,,,"τdes IGABA (effect on time constant of desensitization) (GABAA receptors; 10 μM compound, 5 μM GABA): −12%; Acceleration of decay (desensitization) of IGABA (GABAA receptors; 50 μM compound, 5 μM GABA): 23–45%; Decrease in the peak amplitude of IGABA (GABAA receptors; 50 μM compound, 5 μM GABA): 14–25%"
"C[C@]12CCC(=O)C[C@@H]1CC[C@@H]1[C@@H]2CC[C@]2(C)C(=O)CC[C@@H]12 [Compound 6, 5α-Androstane-3,17-dione]",,,0.65 ± 0.03,−72%,0.76 ± 0.03,0.51 ± 0.05,0.86 ± 0.10,1.2 ± 0.35,16.3 ± 2.4 µM,0.26 ± 0.09 µM,0.48 ± 0.10,0.92 ± 0.04,^cNo effect,0.99 ± 0.02,Modulation of IGABA (peak amplitude or rate of decay/desensitization) (GABAA receptors): did not modulate; also recorded: remained inactive; also recorded: did not change
"C[C@]12CC[C@H](O)C[C@@H]1CC[C@@H]1[C@@H]2CC[C@]2(C)C(=O)CC[C@@H]12 [Compound 4, 3β-Hydroxy-5α-androstan-17-one]",,,0.66 ± 0.05,,0.75 ± 0.03,0.64 ± 0.08,,0.97 ± 0.21,17.1 ± 2.3 µM,,,0.75 ± 0.03,,0.80 ± 0.03,Acceleration of decay (desensitization) of IGABA (GABAA receptors): 23–45%; Decrease in the peak amplitude of IGABA (GABAA receptors): 14–25%; τdes IGABA (effect on time constant of desensitization) (GABAA receptors): −20%; τdes Hill coefficient of IGly (glycine receptor (GlyR)): 0.59 ± 0.16; τdes IGly (effect on time constant of desensitization) (glycine receptor (GlyR)): −64%; τdes max (maximum inhibition attainable) of IGly (glycine receptor (GlyR)): 0.70 ± 0.07; IC50 (glycine receptor (GlyR); read-out: τdes IC50 of IGly): 0.12 ± 0.05 µM
